Consider 27 molecules from patent US10961200B2, “Small molecule inhibitors of lactate dehydrogenase and methods of use thereof” (THE UNITED STATES OF AMERICA, AS REPRESENTED BY THE …, priority 2014, dated 2021).

Usually AUC(0-t) stands for the area under the concentration-time curve up to a stated or last time point. A low value points to less exposure. In general, Cmax refers to the maximum level reached in the sampled fluid or tissue. One may read the IC50 as the concentration that gives 50% inhibition.

A short description of series [1]: oral pharmacokinetics in male CD1 mice (plasma, LC/MS/MS). The format is in vivo. To be noted: oral 10 mg/kg; for F: fraction of the dose that enters systemic circulation.
A further series concerns MiaPaCa2 cells. Briefly: cell-based HT lactate assay, colorimetric/fluorometric detection (inhibition of lactate production). The settings on record: class symbols, 0 to 3 pluses.
In the next series the target is Human LDHA (Homo sapiens (Human), UniProt P00338). Put plainly: human LDHA primary biochemical assay (resazurin/diaphorase coupled, fluorescence). The settings on record: LDHA inhibitory activity. The text has this:
Test compounds were placed in a Greiner Bio-One (Monroe, N.C.) 1536-well black solid bottom assay plate. 200 millimolar (mM) Tris HCl, pH 7.4, 100 micromolar […] EDTA and 0.01% TWEEN-20™, final concentration, was used as the assay buffer. The LDHA reagent was 2 nanomolar (nM) Human LDHA (Meridian Life Science, Inc., Memphis, Tenn.), final concentration, in assay buffer.

The mark [2] stands for this setting: assay of Example 1, activity level classes.
Where [3] appears, read: activity level based on IC50 (Table 7).

For the molecule `CCOC(=O)c1csc(-n2nc(-c3cccc(-c4ccccc4)c3)c(Cc3ccc(S(N)(=O)=O)cc3)c2C(F)(F)F)n1` [Compound 141, ethyl 2-(3-([1,1′-bipheny]-3-yl)-4-(4-sulfamoylbenzyl)-5-(trifluoromethyl)-1H-pyrazol-1-yl)thiazole-4-carboxylate], in series [1], the F is on record as 69%.
For `NS(=O)(=O)c1ccc(Cc2c(-c3cccc(-c4ccccc4)c3)nn(-c3nc(C(=O)O)cs3)c2C(F)(F)F)cc1` [Compound 42, 2-(3-([1,1′-biphenyl]-3-yl)-4-(4-sulfamoylbenzyl)-5-(trifluoromethyl)-1H-pyrazol-1-yl)thiazole-4-carboxylic acid], in series [1] (mouse, plasma), the AUC(0-t) turned out to be 1210 ng·h/mL and the Cmax is 159 ng/mL. The same molecule registered a F in series [1] of 34%.
`Cc1ccc(-c2cc(-c3nn(-c4nc(C(=O)O)cs4)c(CC4CC4)c3Cc3ccc(S(N)(=O)=O)c(F)c3)ccc2F)cc1` [Compound 288]: the half-inhibitory concentration (IC50) in the series on MiaPaCa2 cells was below 1000 nM; against Human LDHA (setting [2]), below 100 nM.
Regarding `N[S+](=O)([O-])c1ccc(Cc2c(-c3cccc(-c4cccc(F)c4)c3)nn(-c3nc(C(=O)O)cs3)c2CC2CC2)cc1` [Compound 370], the values for the IC50 in the series with MiaPaCa2 cells and on Human LDHA (setting [3]) were 1000 to 10000 nM and below 100 nM, respectively.
Take `NS(=O)(=O)c1ccc(Cc2c(-c3ccc(F)c(C#CC4(O)CCCC4)c3)nn(-c3nc(C(=O)O)cs3)c2CC2CC2)cc1F` [Compound 412]: the values for the IC50 in the series with MiaPaCa2 cells and at Human LDHA (setting [3]) were 1000 to 10000 nM and below 100 nM, respectively.
For `NS(=O)(=O)c1ccc(Cc2c(-c3ccc(F)c(C#CC4(F)CCOC4)c3)nn(-c3nc(C(=O)O)cs3)c2CC2CC2)cc1F` (stereo not drawn) [Compound 419] the same measures were below 1000 nM and below 100 nM.
Consider `N[S+](=O)([O-])c1ccc(Cc2c(-c3cccc(OC4CCCC4)c3)nn(-c3nc(C(=O)O)cs3)c2CC2CC2)c(F)c1` [Compound 338], for which the half-maximal inhibitory concentration (IC50) with MiaPaCa2 cells (Homo sapiens, MIA PaCa-2) was below 1000 nM; at Human LDHA (setting [3]), below 100 nM.
Turning to `Cc1c(Cc2ccc(S(N)(=O)=O)cc2)c(-c2ccccc2)nn1-c1nc(C(=O)O)cs1` [Compound 47, 2-(5-methyl-3-phenyl-4-(4-sulfamoylbenzyl)-1H-pyrazol-1-yl)thiazole-4-carboxylic acid], the IC50 in the series on MiaPaCa2 cells (Homo sapiens, MIA PaCa-2) was above 57000 nM; at Human LDHA (setting [2]) it was below 100 nM.
Turning to `NS(=O)(=O)c1ccc(Cc2c(-c3ccc(F)c(OCc4ccccc4)c3)nn(-c3nc(C(=O)O)cs3)c2CC2CC2)cc1` [Compound 480, 2-(3-(3-(benzyloxy)-4-fluorophenyl)-5-(cyclopropylmethyl)-4-(4-sulfamoylbenzyl)-1H-pyrazol-1-yl)thiazole-4-carboxylic Acid], the IC50 in the series with MiaPaCa2 cells (Homo sapiens, MIA PaCa-2) is below 1000 nM; at Human LDHA (setting [3]), below 100 nM.
For the molecule `NS(=O)(=O)c1ccc(Cc2c(-c3cccc(N4CCC(F)(F)CC4)c3)nn(-c3nc(C(=O)O)cs3)c2CC2CC2)cc1F` [Compound 394], the IC50 in the series on MiaPaCa2 cells is 10000 to 57000 nM; on Human LDHA (setting [3]), below 100 nM.
As to `NS(=O)(=O)c1ccc(Cc2c(-c3ccc(F)c(C(=O)N4CCCC4)c3)nn(-c3nc(C(=O)O)cs3)c2CC2CC2)cc1F` [Compound 545, 2-(5-(cyclopropylmethyl)-3-(4-fluoro-3-(pyrrolidine-1-carbonyl)phenyl)-4-(3-fluoro-4-sulfamoylbenzyl)-1H-pyrazol-1-yl)thiazole-4-carboxylic acid], the IC50 with MiaPaCa2 cells (Homo sapiens, MIA PaCa-2) is 10000 to 57000 nM; at Human LDHA (setting [3]), below 100 nM.
For `CC#Cc1cc(-c2nn(-c3nc(C(=O)O)cs3)c(CC3CC3)c2Cc2cccc([S+](N)(=O)[O-])c2)ccc1F` [Compound 422], the figures for the IC50 in the series on MiaPaCa2 cells and against Human LDHA (setting [3]) were 10000 to 57000 nM and below 100 nM, respectively.
`Cc1cc(-c2cccc(F)c2)cc(-c2nn(-c3nc(C(=O)O)cs3)c(CC3CC3)c2Cc2ccc(S(N)(=O)=O)cc2)c1` [Compound 505, 2-(5-(cyclopropylmethyl)-3-(3′-fluoro-5-methyl-[1,1′-biphenyl]-3-yl)-4-(4-sulfamoylbenzyl)-1H-pyrazol-1-yl)thiazole-4-carboxylic Acid]: the IC50 in the series on MiaPaCa2 cells (Homo sapiens, MIA PaCa-2) is 1000 to 10000 nM; on Human LDHA (setting [3]), below 100 nM.
With `NS(=O)(=O)c1ccc(Cc2c(-c3cccc(N4CCOCC4)c3)nn(-c3ncc(C(=O)O)s3)c2CC2CC2)cc1F` [Compound 267], the values for the IC50 in the series on MiaPaCa2 cells and at Human LDHA (setting [2]) were 10000 to 57000 nM and below 100 nM, respectively.
Regarding `NS(=O)(=O)c1ccc(Cc2c(-c3ccc(F)c(F)c3)nn(-c3nc(C(=O)O)cs3)c2I)cc1` [Compound 43, 2-(3-(3,4-difluorophenyl)-5-iodo-4-(4-sulfamoylbenzyl)-1H-pyrazol-1-yl)thiazole-4-carboxylic acid], the IC50 is 10000 to 57000 nM with MiaPaCa2 cells (Homo sapiens, MIA PaCa-2) and below 100 nM at Human LDHA (setting [2]).
The corresponding values for `Cn1c(C(=O)O)cnc1-n1cc(Cc2ccc(S(N)(=O)=O)cc2)c(-c2ccccc2)n1` [Compound 212, 1-methyl-2-(3-phenyl-4-(4-sulfamoylbenzyl)-1H-pyrazol-1-yl)-1H-imidazole-5-carboxylic acid] are above 57000 nM and above 57000 nM.
As to `NS(=O)(=O)c1ccc(Cc2c(-c3cccc(N4CCCC(C(F)(F)F)C4)c3)nn(-c3nc(C(=O)O)cs3)c2CC2CC2)cc1F` (stereo not drawn) [Compound 396], the IC50 in the series on MiaPaCa2 cells is 1000 to 10000 nM; on Human LDHA (setting [3]) it was below 100 nM.
In the case of `COc1cccc(-c2cc(-c3nn(-c4nc(C(=O)O)cs4)c(CC4CC4)c3Cc3ccc(S(N)(=O)=O)cc3)ccc2F)c1` [Compound 237], the IC50 was 1000 to 10000 nM in the series with MiaPaCa2 cells and below 100 nM on Human LDHA (setting [2]).
For the molecule `NS(=O)(=O)c1ccc(Cc2c(-c3cccc(Oc4ccc(F)cc4)c3)nn(-c3nc(C(=O)O)cs3)c2CC2CC2)cc1` [Compound 507, 2-(5-(cyclopropylmethyl)-3-(3-(4-fluorophenoxy)phenyl)-4-(4-sulfamoylbenzyl)-1H-pyrazol-1-yl)thiazole-4-carboxylic Acid], the IC50 in the series on MiaPaCa2 cells (Homo sapiens, MIA PaCa-2) is 1000 to 10000 nM; at Human LDHA (setting [3]), below 100 nM.
As to `NS(=O)(=O)c1ccc(Cc2c(-c3cccc(-c4ccccc4)c3)nn(-c3nc(C(=O)O)cs3)c2CC2CC2)c(F)c1` [Compound 290], the half-inhibitory concentration (IC50) in the series on MiaPaCa2 cells was below 1000 nM; against Human LDHA (setting [2]) it was below 100 nM.
With `N[S+](=O)([O-])c1ccc(Cc2c(-c3ccc(F)c(-c4cccc(CN5CCOCC5)c4)c3)nn(-c3nc(C(=O)O)cs3)c2CC2CC2)cc1F` [Compound 387], the figures for the IC50 with MiaPaCa2 cells and against Human LDHA (setting [3]) were 1000 to 10000 nM and below 100 nM, respectively.
`CNS(=N)(=O)c1ccc(Cc2c(-c3ccc(F)c(-c4cccc(F)c4)c3)nn(-c3nc(C(=O)O)cs3)c2CC2CC2)cc1F` (stereo not drawn) [Compound 389]: the IC50 fell in the range of 1000 to 10000 nM in the series on MiaPaCa2 cells and 100 to 1000 nM at Human LDHA (setting [3]).
In the case of `C#Cc1cc(-c2nn(-c3nc(C(=O)O)cs3)c(CC3CC3)c2Cc2ccc(S(N)(=O)=O)c(F)c2)ccc1F` [Compound 410], the IC50 was below 1000 nM with MiaPaCa2 cells and below 100 nM at Human LDHA (setting [3]).
With `Cn1cncc1C#Cc1cc(-c2nn(-c3nc(C(=O)O)cs3)c(CC3CC3)c2Cc2ccc(S(N)(=O)=O)c(F)c2)ccc1F` [Compound 405], the IC50 was below 1000 nM in the series with MiaPaCa2 cells and below 100 nM against Human LDHA (setting [3]).
In the case of `NS(=O)(=O)c1ccc(Cc2c(-c3cccc(-c4ccccc4)c3)nn(-c3nc(C(=O)O)cs3)c2C2CC2)c(F)c1` [Compound 183, 2-(3-([1,1′-biphenyl]-3-yl)-5-cyclopropyl-4-(2-fluoro-4-sulfamoylbenzyl)-1H-pyrazol-1-yl)thiazole-4-carboxylic acid], the IC50 with MiaPaCa2 cells (Homo sapiens, MIA PaCa-2) was below 1000 nM; against Human LDHA (setting [2]), below 100 nM.
In the case of `NS(=O)(=O)c1ccc(Cc2c(-c3ccc(F)c(C#CC4CCCC4)c3)nn(-c3nc(C(=O)O)cs3)c2CC2CC2)cc1F` [Compound 258], the IC50 is below 1000 nM with MiaPaCa2 cells and below 100 nM against Human LDHA (setting [2]).
The corresponding values for `Cc1ccc(-c2cccc(-c3nn(-c4nc(C(=O)O)cs4)c(CC4CC4)c3Cc3ccc(S(N)(=O)=O)cc3)c2)cc1` [Compound 281] are below 1000 nM and below 100 nM.
